Consider 5 compounds from patent US20240398819A1 (Rhode Island Hospital, priority 2023, published 2024).

The test system of experiment [1] is fibrocytes from explanted human anterior cruciate ligament (ACL) specimens. Briefly: Effects of relaxin-2 antagonist / receptor antagonist on cultured ACL cells from patients with ACL reconstruction (RT-PCR). It counts as cell-based. Particulars: Folic Acid 10 μg/ml, NADH 100 μg/ml. The protocol: Measurements of expressions of MMP13, collagen 1A, collagen 3A, MMP3, and MMP1 in patient ACL tissues were conducted (FIG. 5). Biopsy tissues of the ACL from 20 patients (10 male and 10 female) who underwent surgeries for ACL reconstruction were harvested. The patients' ages ranged from 16 to 61 years, with equal numbers of males and females. The protocol for patient enrollment was approved by the IRB committee at our institution. […] After treatment, cells were lysed and analyzed for the expressions of type I collagen, type III collagen, MMP1, MMP3, and MMP13 using quantitative real-time polymerase chain reaction (RT-PCR). MMP13 expression (FIG. 5A); collagen 1A expression (FIG. 5B); collagen 3A expression (FIG. 5C); MMP3 expression (FIG. 5D); and MMP1 expression (FIG. 5E), all present the innovation. The protocol for patient enrollment was approved by the IRB committee at Rhode Island Hospital. GraphPad PRISM 8 software was used to perform all statistical analyses. Results were presented as mean+standard error of the mean (SEM) of different samples and considered significant when p<0.05. A t-test was used to compare any two groups, *p<0.05, **p<0.01, ***p<0.001 compared to their individual control group; ##p<0.01, compared to their individual relaxin-2 group.
Measurements of expressions of MMP13, collagen 1A, collagen 3A, MMP3, and MMP1 in patient ACL tissues were conducted (FIG. 5). Biopsy tissues of the ACL from 20 patients (10 male and 10 female) who underwent surgeries for ACL reconstruction were harvested. The patients' ages ranged from 16 to 61 years, with equal numbers of males and females. The protocol for patient enrollment was approved by the TRB committee at our institution.
After treatment, cells were lysed and analyzed for the expressions of type I collagen, type III collagen, MMP1, MMP3, and MMP13 using quantitative real-time polymerase chain reaction (RT-PCR). FIG. 5 provides expressions of MMP13, collagen 1A, collagen 3A, MMP3, and MMP1 in patient ACL tissues. (FIG. 5A) MMP13 expression; (FIG. 5B) collagen 1A expression; (FIG. 5C) collagen 3A expression; (FIG. 5D) MMP3 expression; (FIG. 5E) MMP1 expression. In FIG. 5, the protocol for patient enrollment was approved by the IRB committee at Rhode Island Hospital. GraphPad PRISM 8 software was used to perform all statistical analyses. Results were presented as mean+standard error of the mean (SEM) of different samples, and considered significant when p<0.05. A t-test was used to compare any two groups, *p<0.05, **p<0.01, ***p<0.001 compared to their individual control group; ##p<0.01, compared to their individual relaxin-2 group.

Experiment [2] has as its system patient ACL cells. Briefly: MMP gene expression (quantitative real-time RT-PCR) in cultured patient ACL cells treated with relaxin-2. In kind it is cell-based, human. Here is the method:
Methods: Biopsy tissues of the ACL in the knee were collected from 20 patients with ACL reconstruction (ages ranging from 16 years to 61 years old, 10 males and 10 females). The normal ACLs were obtained from the rejected human knee osteochondral grafts from the Musculoskeletal Transplant Foundation (MTF) or the donors from MedCure (ages ranging from 24 years to 84 years old, 4 male and 4 females) were used as control samples. Immunohistochemistry was performed to detect the expression of RXFP2 and apoptosis. The number of RXFP2 positive and apoptotic positive cells were counted from six different fields for each patient. ACL cells were cultured in vitro, then cells were treated with relaxin-2 at different concentrations. After treatment, cells were lysed and analyzed for the expressions of MMP1 and MMP13 using quantitative real-time polymerase chain reaction. The protocol for patient enrollment was approved by the IRB committee at Rhode Island Hospital. GraphPad PRISM 8 software was used to perform all statistical analyses. Results were presented as mean±standard error of the mean (SEM) of different samples. Data were examined by one-way analysis of variance (ANOVA) with Tukey post-hoc multiple comparison. An unpaired t-test was used to compare any two groups. A value of p<0.05 was considered to be statically significant.
Patient ACL tissues were minced and digested with 1.0 mg/mL of type II collagenase at 37° C. at 5% CO2 in 2 mL Dulbecco's modified Eagle medium F12 (DMEM/F12, Gibco) containing 1% antibiotic-antimycotic (Gibco) for 12 hours. ACL cells were then filtered through a […] nylon mesh filter and collected by centrifugation. ACL cells were plated at a density of 1×10^5 cells/cm^2 in DMEM/F12 media supplemented with 10% fetal bovine serum (FBS, Gibco) and 1% antibiotic-antimycotic in 20 cm petri dishes for passage one. The media was changed twice a week. […]
RNA was isolated using TRIzol reagent and RNeasy Mini Kit from cultured ACL cells. RNA concentrations and purity were evaluated using a Nanodrop spectrophotometer (Thermo Scientific, Wilmington, DE, USA). A total of 1 μg of sample RNA was reverse transcribed using the Quantitect RT Kit (Qiagen, cDNA was synthesized from RNA using the iScript cDNA synthesis kit (Bio-Rad). RNA concentrations and purity were evaluated using a Nanodrop spectrophotometer (Thermo Scientific, Wilmington, DE, USA). Exactly 500 ng DNA was used as the template for real-time PCR analyses. Quantitative PCR reactions were performed using SYBR Green Fast Mix in a Bio-Rad real-time PCR machine. All Taqman primer and probe mixes were from Thermo Fisher Scientific (Waltham, MA, USA). Changes in the gene expressions of MMP1 and MMP13 were measured, which were normalized to GAPDH.

The subject of experiment [3] is patient ACL cells. Briefly: cAMP level (ELISA) in patient ACL cells after relaxin-2 treatment. The settings on record: male and female ACL cells. It counts as cell-based, human. The protocol:
The detection of cAMP in samples was conducted using Abcam's cAMP Complete in vitro competitive Enzyme-Linked Immunosorbent Assay (ELISA) kit. Patient samples were first thawed from −80° C. and added to a 10% protease inhibitor in RIPA buffer (Thermo Scientific) solution for cell lysis. Each sample was then pipetted up and down 10 times with a syringe every 10 minutes over the course of 30 minutes. Next, the samples were centrifuged at 14,000 RPM for 5 minutes. The supernatant was then extracted from the pellet and stored at −80° C.
Following cell lysis and supernatant extraction, the total protein concentration of the samples was determined using a BCA protein assay. Albumin standards were prepared with the RIPA buffer and protease inhibitor. […] Standards and samples were then loaded in a 96 well plate with BCA reagent and was read in a plate reader at 570 nm to determine overall protein concentrations in samples. The concentrations of cAMP were determined using Abcam's ELISA kit. […] Stop solutions were added, and the plate was read at 405 nm with correction between 570 nm and 590 nm to determine cAMP concentrations. cAMP concentrations in pmol/mg were calculated by dividing the cAMP concentrations in pmol/mL by the total protein concentrations from the BCA protein assay in mg/mL.

The conditions of experiment [4]: 48 hour intravenous infusion, 30 μg/kg/day; compared with placebo group; cited from earlier work.
The subject of experiment [5] is ACL cells. In words: Vitamin D effects on type I collagen and MMP13 gene expression in cultured ACL cells from patients (RT-PCR). It counts as cell-based, human. The settings on record: 3 days; for Type I collagen expression: vitamin D 1, 10 and 100 nmol/L. The protocol: Biopsy tissues of the ACL in the knee were collected from 20 patients with ACL reconstruction (ages ranging from 16 years to 61 years old, 10 males and 10 females). The ACL cells were cultured in vitro and treated with vitamin D at different concentrations for 3 days. Cells were then lysed and analyzed for expressions of type I collagen and MMP13 genes using quantitative real-time polymerase chain reaction. The protocol for patient enrollment was approved by the IRB committee at Rhode Island Hospital. GraphPad PRISM 8 software was used to perform all statistical analyses. Results were presented as mean±standard error of the mean (SEM) of different samples and considered significant when p<0.05. A t-test was used to compare any two groups. See Appendix II for data and further discussion.

Setting [6] is: male ACL cells, relaxin-2 treatments vs control groups.

`Nc1nc2ncc(CNc3ccc(C(=O)N[C@@H](CCC(=O)O)C(=O)O)cc3)nc2c(=O)[nH]1` [Folic acid]: in experiment [1], the MMP-13 expression result is “significant decrease”, the “collagen 1A expression” value is “significant increases” and the “collagen 3A expression” value is “significant increases”.
`NC(=O)C1=CN([C@@H]2O[C@H](COP(=O)(O)OP(=O)(O)OC[C@H]3O[C@@H](n4cnc5c(N)ncnc54)[C@H](O)[C@@H]3O)[C@@H](O)[C@H]2O)C=CC1` [NADH, nicotinamide adenine dinucleotide hydride]: in experiment [1], the MMP-13 expression result is recorded as “significant decrease”, the “collagen 1A expression” value was “significant increases” and the “collagen 3A expression” value is given as “significant increases”.
relaxin-2: the MMP13 expression entry in experiment [2] (female ACL cells, 10 ng/mL of relaxin-2, vs untreated controls) is listed as “increased”. Also, in experiment [2] (female ACL cells, 100 ng/mL of relaxin-2, vs untreated controls), the MMP1 expression entry is “increased”. In experiment [2] (setting [6]), the MMP1 expression entry is on record as “didn't significant change” and the MMP3 expression result was “didn't significant change”. For the same compound, the cAMP levels entry in experiment [3] is “couldn't change”.
On to serelaxin, for which, in experiment [4], the 180-day mortality result is “improvement” and the short-term dyspnea scores result is “improvement”.
For the compound vitamin D, the MMP13 gene expression result was “increased” in experiment [5] (female cells, vitamin D 1 nmol/L); “reduced” in experiment [5] (female cells, vitamin D 10 nmol/L); “increased” in experiment [5] (male cells, vitamin D 1 nmol/L); “reduced” in experiment [5] (male cells, vitamin D 100 nmol/L). Moreover, the “Type I collagen expression” value is listed as “increased” in experiment [5] (female cells) and “not observed” in experiment [5] (male cells).
